Test results taken from patent publication US7268212B2, “Ligand of G protein-coupled receptor protein and DNA thereof” (Takeda Pharmaceutical Company Limited, priority 2001, dated 2007).
No end group written: not given here.

Experiments:
[1] = target: T1, bovine GPR7 (Bos taurus, UniProt Q8MJV3); assay: Intracellular cAMP production suppression activity on bovine GPR7-expressed CHO cells; format: cell-based; conditions: forskolin-promoted cAMP production; receptor-expressed CHO cells; read-out: IC50 (nM) bovine GPR7, cAMP production inhibition
T1 construct: expressed in transfected cells; host or cells: CHO cells
T1 sequence (Q8MJV3 1-331): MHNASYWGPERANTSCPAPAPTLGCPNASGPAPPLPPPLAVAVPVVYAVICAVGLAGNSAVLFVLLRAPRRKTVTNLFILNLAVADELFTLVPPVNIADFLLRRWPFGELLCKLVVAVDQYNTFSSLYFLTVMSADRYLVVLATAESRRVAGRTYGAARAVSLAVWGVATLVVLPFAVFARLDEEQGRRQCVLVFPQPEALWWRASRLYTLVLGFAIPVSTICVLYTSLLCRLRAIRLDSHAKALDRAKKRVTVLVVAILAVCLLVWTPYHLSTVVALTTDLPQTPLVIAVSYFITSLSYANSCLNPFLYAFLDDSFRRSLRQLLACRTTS
Protocol: The intracellular cAMP production suppression activity of peptides associated with various GPR7 ligands on CHO cells, in which human GPR7, bovine GPR8, human GPR8, human GPR8, bovine GPR8 and rat GPR7 were expressed, was examined. […] An assay buffer was prepared by adding 20 mM HEPES, pH7.4, 0.1% bovine serum albumin and 0.2 mM 3-isobutyl-1-methylxanthine (Sigma) to Hanks' Balanced Salt Solution (Gibco BRL). The plate incubated overnight was first washed twice with 150 μl of the assay buffer, and then exchanged with 150 μl of the assay buffer, followed by incubation for 30 minutes at 37° C. in 100% air. By adding 4 μM forskolin to the assay buffer, a buffer for sample dilution was prepared and the stock solution (10^−2 M of 10^−3 M) was diluted with the buffer thus obtained to prepare sample solutions in final concentrations of 10^−6 M, 10^−7 M, 10^−8 M, 10^−9 M and 10^−10 M. The plate incubated with the assay buffer for 30 minutes was taken out. After washing twice with the assay buffer, 50 μl of the assay buffer and then 50 μl of the sample solution were added thereto. Each sample was assayed in triplet. […] A difference between the maximum cAMP level and the cAMP level when each sample was added was calculated and the percentage of cAMP production level promoted by forskolin was worked out, which was made the cAMP production inhibition rate.

[2] = system: Wistar male rats; assay: Effect of GPR7 ligand on feed uptake in rat by lateral ventricular injection; format: in vivo; conditions: 10 nmols/rat into the lateral ventricle; from 2 hours after the administration; compared to the control group (distilled water)
Protocol: The effect of GPR7 ligand (GPR7L) on feed uptake in rat by lateral ventricular injection was examined. Rat was caged at room temperature of 25° C. while lighting for 8 to 20 o'clock. Mature Wistar male rats (300-320 g body weight upon surgery) were anesthetized with an intraperitoneal injection of 50 mg/kg pentobarbital and placed in a rat brain stereotaxic instrument. The level of incisor bar was 3.3 mm below the interaural line. The skull was exposed, and using a dental drill a hole was made on the bone for implantation of guide cannula AG-8 (inner diameter of 0.4 mm, outer diameter of 0.5 mm, EICOM Corporation). In addition, an anchor screw was buried at 3 positions around the hole. A stainless-steel guide cannula, AG-8, was inserted in such a manner that the tip was situated at the upper part of the lateral ventricle. Stereotaxic coordinates were taken from the atlas according to the atlas of Paxinos & Watson (1986) from bregma AP: −0.8 mm, L:1.5 mm and H:−4.5 mm. The guide cannula was secured to the skull using a dental cement and an anchor screw. […]
After the guide cannula was implanted, rats were caged for about a week to recover from surgical operation. […] The infusion was continued from 19:00 to 20:00 o'clock, and the feed uptake thereafter was measured with passage of time, using a feed uptake measuring device Feed-Scale (Columbus, Inc.).

“WYKPTAGQGYYSVGRAAGLLSGFHRSPYA [Trp1-bovine GPR7L(29)]” was tested, and the IC50 [1] was 1.2 nM and the feed uptake [2] was “significant increase in feed uptake”.
